# From US20260083743A1, “NUCLEOSIDE DERIVATIVE FOR PREVENTING AND TREATING INFLAMMATION AND APPLICATION THEREOF” (WEST CHINA HOSPITAL OF SICHUAN UNIVERSITY, priority 2019, published 2026)
# Tests used:
# [1] = tested on: C57 mice; test: Toxicity test, 180 consecutive days by gavage in C57 mice; format: in vivo; conditions: 100 mg/kg/D for 180 consecutive days by gavage
# Protocol: In this example, the toxicities of compounds 1-19 prepared in example 1 were analyzed.
# C57 mice were given compounds 1-19 at a dose of 100 mg/kg/D for 180 consecutive days by gavage. One hour after the last administration of the drug, the mice were anesthetized by intraperitoneal injection of sodium pentobarbital (40 mg/kg), placed on a constant temperature hot plate at 37±1° C., blood was taken by cardiac puncture or pathological sections were made to detect the side effects (gastrointestinal reaction, nervous system toxicity, hematological toxicity, allergic reaction, nephrotoxicity, hepatotoxicity, rash and asthma) The side effects of aspirin, ibuprofen, indomethacin, phenylbutazone, diclofenac, piroxicam and glucocorticoid groups were investigated according to the same administration method as compounds 1-19.
# [2] = tested on: arthritis model; test: Improvement effect on arthritis, sodium iodoacetate knee joint model in SD rats; format: in vivo; set-up: Pathological tissue score (joint): scale not given here; conditions: gavage every day 100 mg/kg/d; 4th week after operation; n = 10
# Protocol: In this example, the improvement effect of compounds 1˜19 prepared in example 1 on arthritic was measured. (1) Animals: SD rats, four rates in one cage, were fed under the conditions of constant temperature (25±2° C.) and illumination control (12 h day/night circulation). The animals were fed with standard feed, and fed for at least 7 days to adapt environment before the experiment. […] (3) SD rats were fasted for 12 hours before operation, and weighed and recorded prior to operation. The blank control group was not treated any more. […] After anesthesia, they were fixed in the supine position. 0.1 ml of 1 g/L sodium iodoacetate solution was injected into the knee joint. From the fifth day, the animals were driven to run for 30 minutes every day, and they were allowed to move freely in the cage the rest of the time. After modeling, indomethacin and compounds 1˜19 were given by gavage every day at the dose of 100 mg/kg/d. The blank control group and the model control group were given equal volume of isotonic saline. At the 4th week after operation, the articular fluid of rats in each group was extracted to measure the content of MMP-13. The rats were killed, and the subchondral bone plate of the inner condyle of the tibia of the right knee was cut and processed into specimens, and pathological scores were made.
# [3] = tested on: sodium taurocholate-induced pancreatitis model; test: Improvement effect on pancreatitis, sodium taurocholate-induced model in mice; format: in vivo, Blab/c mice; set-up: Pancreatic histopathological injury score: scale not given here; conditions: 17.5 mg/kg caudal vein 1 h, 3 h and 6 h after model construction; after 24 hours; n = 10
# Text: In this example, the improvement effect of compounds 1 19 prepared in example 1 on […] measured. (1) Animals: Adult and Healthy Male Blab/c Mice, 25 30 g. […] A model was made with sodium taurocholate. […] After anesthesia, the surgical site was sterilized with an alcohol cotton ball. The sterile gauze was placed on the surgical site. A laparotomy was made at the width of two fingers under the xiphoid process. After seeing the liver, an incision was made, the cotton swab soaked in normal saline was stretched into the enterocoelia, the duodenum was sought on the back of the liver, turned out and placed on the sterile gauze, the pancreaticobiliary duct and duodenal papilla were sought, and the needle of 1 mL syringe was used to pierce a hole on the along the direction of the nipple, a 24 G indwelling needle tube was inserted into the pancreatic duct along the nipple, and the common bile duct below the liver was closed with an arterial vascular clip, with a dose of 0.1 mL/100 g and 0.1 mL/min inject sodium taurocholate with a concentration of 3.8% at a flow rate. During this process, pay attention to adding saline to the exposed pancreas and duodenum to keep it moist. After the injection, the tube was slowly taken out and the bile duct was continued to be closed. The main tube was removed from the vascular artery clip 3 minutes later, the duodenum was also accommodated, and the abdominal cavity was sutured in double layers. The blank control group was injected with equal volume of isotonic saline. […] The blank control group and the model control group were given equal volume of isotonic saline. After 24 hours, pancreatic tissue and blood samples were taken, and the pancreatic histopathological injury score and the level of pancreatic amylase in serum were evaluated.
# [4] = tested on: mouse hepatitis model; test: Improvement effect on hepatitis, concanavalin A (ConA) mouse hepatitis model; format: in vivo, Blab/c mice; conditions: gavage 50 mg/kg, n = 10
# Protocol: In this example, the improvement effect of compounds 1 19 prepared in example 1 on […] measured. (1) Animals: Adult and Healthy Male Blab/c Mice, 25 30 g. […] The blank control group was injected with equal volume of isotonic saline. After modeling, indomethacin and compounds 1 19 were given by gavage every day at the dose of 50 mg/kg. The blank control group and the model control group were given equal volume of isotonic saline. Eyeball blood and liver tissue were taken at 6 h, 12 h, 24 h and 48 h after administration. The levels of serum alanine aminotransferase (ALT) and aspartate aminotransferase (AST) were measured.
smiles,measurement,setting,value
"CC(=O)Oc1ccccc1C(=O)O [Aspirin, aspirin]",Occurrence rate of side effects,[1],20%
"CN1C(C(=O)Nc2ccccn2)=C(O)c2ccccc2S1(=O)=O [Piroxicam, piroxicam]",Occurrence rate of side effects,[1],20%
"O=C(O)Cc1ccccc1Nc1c(Cl)cccc1Cl [Diclofenac, diclofenac]",Occurrence rate of side effects,[1],20%
"CC(C)Cc1ccc(C(C)C(=O)O)cc1 (centres unmarked) [Ibuprofen, ibuprofen]",Occurrence rate of side effects,[1],20%
"CCCCC1C(=O)N(c2ccccc2)N(c2ccccc2)C1=O [Baotaisong, phenylbutazone]",Occurrence rate of side effects,[1],20%
"CC(C)NCCn1c(=O)c2c(ncn2C)n(C)c1=O [Compound 13, 1-(2-isopropylaminoethyl)-3,7-dimethylxanthine]",MMP-13 content in joint fluid,[2],98 ± 5 mg/L
same,Pathological tissue score (joint),[2],0.3 ± 0.5
same,Amylopsin (pancreatic amylase level in serum),[3],6 ± 2 KU/L
same,Pancreatic histopathological injury score,[3],1.8 ± 0.2
same,Aspartate aminotransferase (AST),[4]; 6 h after administration,63 ± 7 U/L
same,Serum alanine aminotransferase (ALT),[4]; 6 h after administration,87 ± 9 U/L
same,Aspartate aminotransferase (AST),[4]; 12 h after administration,102 ± 12 U/L
same,Serum alanine aminotransferase (ALT),[4]; 12 h after administration,121 ± 13 U/L
same,Aspartate aminotransferase (AST),[4]; 24 h after administration,132 ± 13 U/L
same,Serum alanine aminotransferase (ALT),[4]; 24 h after administration,172 ± 17 U/L
same,Aspartate aminotransferase (AST),[4]; 48 h after administration,93 ± 9 U/L
same,Serum alanine aminotransferase (ALT),[4]; 48 h after administration,143 ± 12 U/L
"CCC(=O)OCCn1c(=O)c2c(ncn2C)n(C)c1=O [Compound 9, 1-(propionic acid-2-ethyl)-3,7-dimethylxanthine]",MMP-13 content in joint fluid,[2],97 ± 7 mg/L
same,Pathological tissue score (joint),[2],0.6 ± 0.2
same,Amylopsin (pancreatic amylase level in serum),[3],5 ± 3 KU/L
same,Pancreatic histopathological injury score,[3],0.5 ± 0.4
same,Aspartate aminotransferase (AST),[4]; 6 h after administration,78 ± 7 U/L
same,Serum alanine aminotransferase (ALT),[4]; 6 h after administration,78 ± 8 U/L
same,Aspartate aminotransferase (AST),[4]; 12 h after administration,123 ± 8 U/L
same,Serum alanine aminotransferase (ALT),[4]; 12 h after administration,110 ± 13 U/L
same,Aspartate aminotransferase (AST),[4]; 24 h after administration,142 ± 13 U/L
same,Serum alanine aminotransferase (ALT),[4]; 24 h after administration,175 ± 18 U/L
same,Aspartate aminotransferase (AST),[4]; 48 h after administration,131 ± 14 U/L
same,Serum alanine aminotransferase (ALT),[4]; 48 h after administration,123 ± 12 U/L
"CC(=O)CCn1c(=O)c2c(ncn2C)n(C)c1=O [Compound 15, 1-(2-acetylethyl)-3,7-dimethylxanthine]",MMP-13 content in joint fluid,[2],91 ± 7 mg/L
same,Pathological tissue score (joint),[2],0.6 ± 0.5
same,Amylopsin (pancreatic amylase level in serum),[3],5 ± 4 KU/L
same,Pancreatic histopathological injury score,[3],1.6 ± 0.4
same,Aspartate aminotransferase (AST),[4]; 6 h after administration,65 ± 7 U/L
same,Serum alanine aminotransferase (ALT),[4]; 6 h after administration,65 ± 8 U/L
same,Aspartate aminotransferase (AST),[4]; 12 h after administration,118 ± 18 U/L
same,Serum alanine aminotransferase (ALT),[4]; 12 h after administration,171 ± 15 U/L
same,Aspartate aminotransferase (AST),[4]; 24 h after administration,198 ± 18 U/L
same,Serum alanine aminotransferase (ALT),[4]; 24 h after administration,218 ± 26 U/L
same,Aspartate aminotransferase (AST),[4]; 48 h after administration,129 ± 9 U/L
same,Serum alanine aminotransferase (ALT),[4]; 48 h after administration,132 ± 12 U/L
"CC(C)n1c(=O)c2c(ncn2C(C)C)n(C)c1=O [Compound 7, 1,7-diisopropyl-3-methylxanthine]",MMP-13 content in joint fluid,[2],84 ± 5 mg/L
same,Pathological tissue score (joint),[2],0.3 ± 0.3
same,Amylopsin (pancreatic amylase level in serum),[3],4 ± 2 KU/L
same,Pancreatic histopathological injury score,[3],0.5 ± 0.2
same,Aspartate aminotransferase (AST),[4]; 6 h after administration,41 ± 7 U/L
same,Serum alanine aminotransferase (ALT),[4]; 6 h after administration,51 ± 8 U/L
same,Aspartate aminotransferase (AST),[4]; 12 h after administration,78 ± 8 U/L
same,Serum alanine aminotransferase (ALT),[4]; 12 h after administration,93 ± 8 U/L
same,Aspartate aminotransferase (AST),[4]; 24 h after administration,101 ± 8 U/L
same,Serum alanine aminotransferase (ALT),[4]; 24 h after administration,131 ± 12 U/L
same,Aspartate aminotransferase (AST),[4]; 48 h after administration,84 ± 7 U/L
same,Serum alanine aminotransferase (ALT),[4]; 48 h after administration,95 ± 12 U/L
"CCn1cnc2c1c(=O)n(C)c(=O)n2C [Compound 4, 1,3-dimethyl-7-ethylxanthine]",MMP-13 content in joint fluid,[2],102 ± 8 mg/L
same,Pathological tissue score (joint),[2],0.6 ± 0.4
same,Amylopsin (pancreatic amylase level in serum),[3],11 ± 2 KU/L
same,Pancreatic histopathological injury score,[3],1.4 ± 0.4
same,Aspartate aminotransferase (AST),[4]; 6 h after administration,65 ± 7 U/L
same,Serum alanine aminotransferase (ALT),[4]; 6 h after administration,79 ± 8 U/L
same,Aspartate aminotransferase (AST),[4]; 12 h after administration,91 ± 8 U/L
same,Serum alanine aminotransferase (ALT),[4]; 12 h after administration,118 ± 9 U/L
same,Aspartate aminotransferase (AST),[4]; 24 h after administration,103 ± 9 U/L
same,Serum alanine aminotransferase (ALT),[4]; 24 h after administration,142 ± 12 U/L
same,Aspartate aminotransferase (AST),[4]; 48 h after administration,96 ± 9 U/L
same,Serum alanine aminotransferase (ALT),[4]; 48 h after administration,105 ± 13 U/L
"CCCNCCn1c(=O)c2c(ncn2C)n(C)c1=O [Compound 14, 1-(2-propylaminoethyl)-3,7-dimethylxanthine]",MMP-13 content in joint fluid,[2],93 ± 7 mg/L
same,Pathological tissue score (joint),[2],0.7 ± 0.3
same,Amylopsin (pancreatic amylase level in serum),[3],5 ± 3 KU/L
same,Pancreatic histopathological injury score,[3],1.9 ± 0.4
same,Aspartate aminotransferase (AST),[4]; 6 h after administration,65 ± 7 U/L
same,Serum alanine aminotransferase (ALT),[4]; 6 h after administration,56 ± 8 U/L
same,Aspartate aminotransferase (AST),[4]; 12 h after administration,93 ± 12 U/L
same,Serum alanine aminotransferase (ALT),[4]; 12 h after administration,134 ± 15 U/L
same,Aspartate aminotransferase (AST),[4]; 24 h after administration,152 ± 15 U/L
same,Serum alanine aminotransferase (ALT),[4]; 24 h after administration,193 ± 12 U/L
same,Aspartate aminotransferase (AST),[4]; 48 h after administration,119 ± 12 U/L
same,Serum alanine aminotransferase (ALT),[4]; 48 h after administration,132 ± 13 U/L
"CCC(=O)CCn1c(=O)c2c(ncn2C)n(C)c1=O [Compound 16, 1-(2-propionylethyl)-3,7-dimethylxanthine]",MMP-13 content in joint fluid,[2],93 ± 9 mg/L
same,Pathological tissue score (joint),[2],0.4 ± 0.3
same,Amylopsin (pancreatic amylase level in serum),[3],5 ± 2 KU/L
same,Pancreatic histopathological injury score,[3],1.8 ± 0.3
same,Aspartate aminotransferase (AST),[4]; 6 h after administration,59 ± 7 U/L
same,Serum alanine aminotransferase (ALT),[4]; 6 h after administration,61 ± 8 U/L
same,Aspartate aminotransferase (AST),[4]; 12 h after administration,93 ± 11 U/L
same,Serum alanine aminotransferase (ALT),[4]; 12 h after administration,101 ± 16 U/L
same,Aspartate aminotransferase (AST),[4]; 24 h after administration,121 ± 12 U/L
same,Serum alanine aminotransferase (ALT),[4]; 24 h after administration,132 ± 12 U/L
same,Aspartate aminotransferase (AST),[4]; 48 h after administration,103 ± 9 U/L
same,Serum alanine aminotransferase (ALT),[4]; 48 h after administration,104 ± 13 U/L
"CNCCn1c(=O)c2c(ncn2C)n(C)c1=O [Compound 11, 1-(2-methylaminoethyl)-3,7-dimethylxanthine]",MMP-13 content in joint fluid,[2],86 ± 5 mg/L
same,Pathological tissue score (joint),[2],0.3 ± 0.3
same,Amylopsin (pancreatic amylase level in serum),[3],5 ± 3 KU/L
same,Pancreatic histopathological injury score,[3],0.5 ± 0.2
same,Aspartate aminotransferase (AST),[4]; 6 h after administration,48 ± 7 U/L
same,Serum alanine aminotransferase (ALT),[4]; 6 h after administration,54 ± 6 U/L
same,Aspartate aminotransferase (AST),[4]; 12 h after administration,89 ± 8 U/L
same,Serum alanine aminotransferase (ALT),[4]; 12 h after administration,92 ± 9 U/L
same,Aspartate aminotransferase (AST),[4]; 24 h after administration,112 ± 12 U/L
same,Serum alanine aminotransferase (ALT),[4]; 24 h after administration,142 ± 14 U/L
same,Aspartate aminotransferase (AST),[4]; 48 h after administration,95 ± 9 U/L
same,Serum alanine aminotransferase (ALT),[4]; 48 h after administration,110 ± 13 U/L
"CCn1c(=O)c2c(ncn2C)n(C)c1=O [Compound 1, 1-ethyl-3-7-dimethylxanthine]",MMP-13 content in joint fluid,[2],86 ± 4 mg/L
same,Pathological tissue score (joint),[2],0.2 ± 0.3
same,Amylopsin (pancreatic amylase level in serum),[3],3 ± 1 KU/L
same,Pancreatic histopathological injury score,[3],0.4 ± 0.3
same,Aspartate aminotransferase (AST),[4]; 6 h after administration,43 ± 7 U/L
same,Serum alanine aminotransferase (ALT),[4]; 6 h after administration,56 ± 8 U/L
same,Aspartate aminotransferase (AST),[4]; 12 h after administration,82 ± 8 U/L
same,Serum alanine aminotransferase (ALT),[4]; 12 h after administration,97 ± 8 U/L
same,Aspartate aminotransferase (AST),[4]; 24 h after administration,104 ± 8 U/L
same,Serum alanine aminotransferase (ALT),[4]; 24 h after administration,132 ± 12 U/L
same,Aspartate aminotransferase (AST),[4]; 48 h after administration,89 ± 9 U/L
same,Serum alanine aminotransferase (ALT),[4]; 48 h after administration,100 ± 12 U/L
